For assay [1], the target named is T1, cloned human h-NK1 receptors expressed in CHO cells (Homo sapiens, UniProt P25103).
T1 construct: expressed in transfected cells; host or cells: CHO cells
The experiment in a line: Binding experiment for h-NK1 receptors ([3H]-Substance P displacement). The settings on record: read-out: h-NK1 pIC50 (converted). As for the experimental part: (§1) The compounds according to the invention were investigated for interaction with various neurotransmitter receptors, ion channels and transporter binding sites using the radioligand binding technique. Membranes from tissue homogenates or from cells, expressing the receptor or transporter of interests, were incubated with a radioactively labelled substance ([^3H]- or [^125I] ligand) to label a particular receptor. […] Following incubation, labelled membranes were harvested and rinsed with excessive cold buffer to remove non-bound radioactivity by rapid filtration under suction. Membrane bound radioactivity was counted in a scintillation counter and results were expressed in counts per minute (cpm).
(§2) The compounds were dissolved in DMSO and tested at 10 concentrations ranging from 10^−10 to 10^−5 M.
(§3) The ability of the compounds according to the invention to displace [^3H]-Substance P from cloned human h-NK1 receptors expressed in CHO cells, to displace [^3H]-SR-48968 from cloned human h-NK2 receptors expressed in Sf9 cells, and to displace [^3H]-SR-142801 from cloned human h-NK3 receptors expressed in CHO cells was evaluated.

Assay [2] deals with T2, cloned human h-NK2 receptors expressed in Sf9 cells (Homo sapiens, UniProt P21452).
T2 construct: expressed in transfected cells; host or cells: Sf9 cells
T2 sequence (P21452 1-398): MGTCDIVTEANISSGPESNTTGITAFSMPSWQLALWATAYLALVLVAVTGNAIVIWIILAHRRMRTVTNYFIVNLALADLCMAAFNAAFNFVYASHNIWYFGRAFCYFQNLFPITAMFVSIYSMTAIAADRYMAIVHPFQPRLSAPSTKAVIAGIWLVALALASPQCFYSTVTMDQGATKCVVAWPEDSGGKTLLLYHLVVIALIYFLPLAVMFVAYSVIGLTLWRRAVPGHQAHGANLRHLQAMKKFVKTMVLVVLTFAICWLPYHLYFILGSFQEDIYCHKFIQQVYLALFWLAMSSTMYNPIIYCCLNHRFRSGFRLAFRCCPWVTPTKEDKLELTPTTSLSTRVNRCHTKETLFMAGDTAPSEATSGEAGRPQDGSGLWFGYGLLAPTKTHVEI
As to the kind of experiment: Binding experiment for h-NK2 receptors ([3H]-SR-48968 displacement). The note with it: [3H]-SR-48968, Sf9 cells; read-out: h-NK2 pIC50 (converted). As for the experimental part:
as §1, §2, §3

The target of assay [3] is T3, cloned human h-NK3 receptors expressed in CHO cells (Homo sapiens, UniProt P29371).
T3 construct: expressed in transfected cells; host or cells: CHO cells
T3 sequence (P29371 1-465): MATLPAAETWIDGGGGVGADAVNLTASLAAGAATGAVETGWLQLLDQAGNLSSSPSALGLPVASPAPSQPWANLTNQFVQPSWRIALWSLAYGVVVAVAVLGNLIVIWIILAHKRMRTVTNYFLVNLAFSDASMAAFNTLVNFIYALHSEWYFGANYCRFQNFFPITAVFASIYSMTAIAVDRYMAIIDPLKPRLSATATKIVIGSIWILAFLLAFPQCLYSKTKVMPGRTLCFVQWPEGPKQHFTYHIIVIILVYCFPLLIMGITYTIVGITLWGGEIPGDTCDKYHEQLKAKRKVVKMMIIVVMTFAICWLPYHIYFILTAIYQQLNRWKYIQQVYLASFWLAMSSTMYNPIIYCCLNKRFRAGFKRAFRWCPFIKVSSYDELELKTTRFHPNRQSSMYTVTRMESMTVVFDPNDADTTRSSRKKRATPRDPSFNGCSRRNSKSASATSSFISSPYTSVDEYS
As to the kind of experiment: Binding experiment for h-NK3 receptors ([3H]-SR-142801 displacement). The note with it: [3H]-SR-142801, CHO cells; read-out: h-NK3 pIC50 (converted). As for the experimental part: as §1, §2, §3

T1 sequence (P25103 whole entry): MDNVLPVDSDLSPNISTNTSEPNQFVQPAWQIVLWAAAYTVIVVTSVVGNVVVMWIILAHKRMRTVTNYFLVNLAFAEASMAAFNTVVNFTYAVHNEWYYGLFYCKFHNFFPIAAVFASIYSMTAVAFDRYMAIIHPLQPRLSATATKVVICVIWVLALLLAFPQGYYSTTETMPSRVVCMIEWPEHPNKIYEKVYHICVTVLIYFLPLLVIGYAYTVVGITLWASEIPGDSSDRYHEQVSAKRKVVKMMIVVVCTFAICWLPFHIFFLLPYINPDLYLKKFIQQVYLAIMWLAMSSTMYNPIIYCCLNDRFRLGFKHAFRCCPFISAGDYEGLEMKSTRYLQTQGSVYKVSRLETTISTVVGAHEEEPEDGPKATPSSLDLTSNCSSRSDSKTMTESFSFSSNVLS

As for `Cc1cc(C)cc(CN2CCC(N3CCN([C@H]4CCN(C(=O)c5cc(C(F)(F)F)cc(C(F)(F)F)c5)[C@H](Cc5ccccc5)C4)CC3)CC2)c1` [Compound 22], the IC50 in assay [1] was 0.398 nM; in assay [2] it was 631 nM; in assay [3] it was 316 nM.
The matching figures for `COCC(=O)N1CCC(N2CCN([C@H]3CCN(C(=O)c4cc(C(F)(F)F)cc(C(F)(F)F)c4)[C@H](Cc4ccccc4)C3)CC2)CC1` [Compound 104]: 0.631 nM, 1580 nM and 1580 nM.
The matching figures for `Cc1nnsc1C(=O)N1CCC(N2CCN([C@@H]3CCN(C(=O)c4cc(C(F)(F)F)cc(C(F)(F)F)c4)[C@@H](Cc4ccccc4)C3)CC2)CC1` [Compound 141]: 7.94 nM, 3980 nM and 3980 nM.
As to `COc1cc(C(=O)N2CCC(N3CCN([C@H]4CCN(C(=O)c5cc(C(F)(F)F)cc(C(F)(F)F)c5)[C@H](Cc5ccccc5)C4)CC3)CC2)cc(OC)c1OC` [Compound 65], the IC50 is 3.98 nM in assay [1], 631 nM in assay [2] and 251 nM in assay [3].
The matching figures for `O=C(c1cc(C(F)(F)F)cc(C(F)(F)F)c1)N1CCC(N2CCN(C3CCNCC3)CC2)CC1Cc1ccccc1` (centres unmarked) [Compound 2]: 2.51 nM, 1580 nM and 6310 nM.
The matching figures for `Cc1cccc(C(=O)N2CCC(N3CCN([C@H]4CCN(C(=O)c5cc(C(F)(F)F)cc(C(F)(F)F)c5)[C@H](Cc5ccccc5)C4)CC3)CC2)c1` [Compound 37]: 3.98 nM, 501 nM and 251 nM.
On to `O=C(C(c1ccccc1)N1CCCC1)N1CCC(N2CCN(C3CCN(C(=O)c4cc(C(F)(F)F)cc(C(F)(F)F)c4)C(Cc4ccccc4)C3)CC2)CC1` (centres unmarked) [Compound 113], for which the IC50 is 1 nM in assay [1], 398 nM in assay [2] and 398 nM in assay [3].
For the compound `Cc1oncc1C(=O)N1CCC(N2CCN(C3CCN(C(=O)c4cc(C(F)(F)F)cc(C(F)(F)F)c4)C(Cc4ccccc4)C3)CC2)CC1` (centres unmarked) [Compound 4], the IC50 in assay [1] is 1.58 nM; in assay [2], 6310 nM; in assay [3], 200 nM.
The matching figures for `Cc1cc(C)cc(C(=O)N2CCC(N3CCN(C4CCN(C(=O)c5cc(C(F)(F)F)cc(C(F)(F)F)c5)C(Cc5ccccc5)C4)CC3)CC2Cc2ccccc2)c1` (single isomer, unassigned) [Compound 11]: 39.8 nM, 631 nM and 251 nM.
With `Cn1cccc1CN1CCC(N2CCN(C3CCN(C(=O)c4cc(C(F)(F)F)cc(C(F)(F)F)c4)C(Cc4ccccc4)C3)CC2)CC1` (centres unmarked) [Compound 9], the figures for the IC50 in assay [1], in assay [2] and in assay [3] were 1.26 nM, 631 nM and 501 nM, respectively.
Regarding `CC(C)(C)OC(=O)N1CCCCC1C(=O)N1CCC(N2CCN([C@H]3CCN(C(=O)c4cc(C(F)(F)F)cc(C(F)(F)F)c4)[C@H](Cc4ccccc4)C3)CC2)CC1` (some centres unmarked) [Compound 89], the results for the IC50 in assay [1], in assay [2] and in assay [3] were 2.51 nM, 631 nM and 631 nM, respectively.
In the case of `NC(Cc1ccc(O)cc1)C(=O)N1CCC(N2CCN(C3CCN(C(=O)c4cc(C(F)(F)F)cc(C(F)(F)F)c4)C(Cc4ccccc4)C3)CC2)CC1` (centres unmarked) [Compound 13], the values for the IC50 in assay [1], in assay [2] and in assay [3] were 1.26 nM, 631 nM and 1000 nM, respectively.
Take `Cc1ccc(O)c(C(=O)N2CCC(N3CCN([C@H]4CCN(C(=O)c5cc(C(F)(F)F)cc(C(F)(F)F)c5)[C@H](Cc5ccccc5)C4)CC3)CC2)c1` [Compound 56]: the figures for the IC50 in assay [1], in assay [2] and in assay [3] were 1 nM, 501 nM and 200 nM, respectively.
On the same counts, the results for `O=C(c1ccccc1O)N1CCC(N2CCN([C@H]3CCN(C(=O)c4cc(C(F)(F)F)cc(C(F)(F)F)c4)[C@H](Cc4ccccc4)C3)CC2)CC1` [Compound 36] are 1 nM, 794 nM and 794 nM.
On the same counts, the results for `Cc1cc(C)cc(C(=O)N2CCC(N3CCN(C4CCN(C(=O)c5cc(C(F)(F)F)cc(C(F)(F)F)c5)C(Cc5ccccc5)C4)CC3)CC2Cc2ccccc2)c1` (single isomer, unassigned) [Compound 10] are 50.1 nM, 398 nM and 631 nM.
On the same counts, the results for `O=C(c1cc(C(F)(F)F)cc(C(F)(F)F)c1)N1CCC(N2CCN(C3CCN(C(=O)n4ccnc4)CC3)CC2)CC1Cc1ccccc1` (centres unmarked) [Compound 12] are 0.794 nM, 1000 nM and 794 nM.
Take `O=C(c1cc(F)cc(F)c1)N1CCC(N2CCN([C@H]3CCN(C(=O)c4cc(C(F)(F)F)cc(C(F)(F)F)c4)[C@H](Cc4ccccc4)C3)CC2)CC1` [Compound 51]: the IC50 in assay [1] was 1.26 nM; in assay [2], 631 nM; in assay [3] it was 398 nM.
On to `O=C(c1cccc(Cl)c1)N1CCC(N2CCN([C@H]3CCN(C(=O)c4cc(C(F)(F)F)cc(C(F)(F)F)c4)[C@H](Cc4ccccc4)C3)CC2)CC1` [Compound 32], for which the IC50 is 1.58 nM in assay [1], 631 nM in assay [2] and 158 nM in assay [3].
On the same counts, the results for `O=C(c1ccccn1)N1CCC(N2CCN([C@H]3CCN(C(=O)c4cc(C(F)(F)F)cc(C(F)(F)F)c4)[C@H](Cc4ccccc4)C3)CC2)CC1` [Compound 79] are 6.31 nM, 316 nM and 398 nM.
The matching figures for `O=C(c1cccnc1)N1CCC(N2CCN([C@H]3CCN(C(=O)c4cc(C(F)(F)F)cc(C(F)(F)F)c4)[C@H](Cc4ccccc4)C3)CC2)CC1` [Compound 80]: 0.501 nM, 794 nM and 251 nM.
`CC(C)(C)OC(=O)N1Cc2ccccc2C[C@H]1C(=O)N1CCC(N2CCN([C@H]3CCN(C(=O)c4cc(C(F)(F)F)cc(C(F)(F)F)c4)[C@H](Cc4ccccc4)C3)CC2)CC1` [Compound 90]: the IC50 in assay [1] was 31.6 nM; in assay [2] it was 316 nM; in assay [3] it was 126 nM.
For the compound `O=C(c1ccsc1)N1CCC(N2CCN(C3CCN(C(=O)c4cc(C(F)(F)F)cc(C(F)(F)F)c4)C(Cc4ccccc4)C3)CC2)CC1` (centres unmarked) [Compound 5], the IC50 in assay [1] was 0.1 nM; in assay [2], 794 nM; in assay [3] it was 501 nM.
In the case of `Cc1nnsc1C(=O)N1CCC(N2CCN([C@H]3CCN(C(=O)c4cc(C(F)(F)F)cc(C(F)(F)F)c4)[C@@H](Cc4ccccc4)C3)CC2)CC1` [Compound 140], the IC50 in assay [1] is 3.16 nM; in assay [2] it was 3980 nM; in assay [3], 5010 nM.
On the same counts, the results for `Cc1nnsc1C(=O)N1CCC(N2CCN([C@@H]3CCN(C(=O)c4cc(C(F)(F)F)cc(C(F)(F)F)c4)[C@H](Cc4ccccc4)C3)CC2)CC1` [Compound 139] are 1.58 nM, 794 nM and 316 nM.
The matching figures for `O=C(c1cc(C(F)(F)F)cc(C(F)(F)F)c1)N1CCC(N2CCN(C3CCN(Cc4cc(C(F)(F)F)cc(C(F)(F)F)c4)CC3)CC2)CC1Cc1ccccc1` (centres unmarked) [Compound 26]: 39.8 nM, 1000 nM and 1000 nM.
The matching figures for `COc1cc(CC(=O)N2CCC(N3CCN([C@H]4CCN(C(=O)c5cc(C(F)(F)F)cc(C(F)(F)F)c5)[C@H](Cc5ccccc5)C4)CC3)CC2)cc(OC)c1OC` [Compound 106]: 1 nM, 1000 nM and 501 nM.
For `O=C(c1cc(C(F)(F)F)cc(C(F)(F)F)c1)N1CC[C@H](N2CCN(C3CCN(c4ncccn4)CC3)CC2)C[C@H]1Cc1ccccc1` [Compound 16], the IC50 in assay [1] is 1 nM; in assay [2], 501 nM; in assay [3] it was 158 nM.
With `O=C(c1snnc1CO)N1CCC(N2CCN(C3CCN(C(=O)c4cc(C(F)(F)F)cc(C(F)(F)F)c4)C(Cc4ccccc4)C3)CC2)CC1` (centres unmarked) [Compound 144], the IC50 is 1260 nM in assay [2] and 631 nM in assay [3].

(Values after patent US20060128721A1, “Novel formulations of opioid-based treatments of pain comprising substituted 1,4-di-piperidin-4-yl-piperazine derivatives” (priority 2003, published 2006).)
